From patent US7129078B2, “DNA encoding androgen receptor fragment” (University of North Carolina at Chapel Hill, priority 1988, dated 2006)

Biological target: T1, steroid-binding domain of hAR (human androgen receptor) expressed from cDNA fragment (Homo sapiens, UniProt P10275)
T1 sequence (P10275 669-900 limits assumed): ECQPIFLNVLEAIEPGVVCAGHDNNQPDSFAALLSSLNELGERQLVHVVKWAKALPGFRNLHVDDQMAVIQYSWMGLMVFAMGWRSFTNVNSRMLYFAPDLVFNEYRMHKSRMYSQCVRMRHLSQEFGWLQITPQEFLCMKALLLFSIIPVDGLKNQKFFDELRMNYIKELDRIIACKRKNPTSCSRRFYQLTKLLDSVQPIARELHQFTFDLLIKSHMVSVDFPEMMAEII
Details: unlabeled steroid at 10- and 100-fold excess over 5 nM [3H]dihydrotestosterone

## C[C@]12CCC(=O)C=C1CC[C@@H]1[C@@H]2[C@@H](O)C[C@@]2(C)[C@H]1CC[C@]2(O)C(=O)CO [cortisol]
  steroid specificity (relative affinity): low affinity
